The values below come from patent US20060229236A1, “Cyclic tetrapeptide compound and use thereof” (FUJISAWA PHARMACEUTICAL Co. LTD., priority 2001, published 2006).

Test [1] relates to splenic cells of Lewis rats. Put plainly: Test 2: Determination of T-cell growth inhibitor activity (T lymphocyte blastogenesis test). The conditions noted are these: Lewis rat splenic cells, Concanavalin A (1 μg/ml), 72 hours, AlamarBlue Assay, read-out: Test 2: T-cell growth inhibitory activity IC50. The format is cell-based. The method, then:
Test 2: Determination of T-Cell Growth Inhibitor Activity
The T lymphocyte blastogenesis test was performed in microtiter plates with each well containing 1.5×10^5 splenic cells of Lewis rats in 0.1 ml RPMI-1640 medium supplemented with 10% fetal bovine serum (FBS), […] 2-mercaptoethanol, penicilln (100 units/ml) and streptomycin (100 μg/ml), to which Concanavalin A (1 μg/ml) was added. The cells were incubated at 37° C. in a humidified atmosphere of 5% CO2 for 72 hours. After the culture period, suppressive activities of the test compounds in T lymphocyte blastogenesis were quantified by AlamarBlue (trademark) Assay. The test samples were dissolved in DMSO and further diluted with RPMI-1640 medium and added to the culture. The activities of the test compounds were expressed as IC50.

For test [2], the target named is T1, human histone deacetylase.
T1 construct: The human histone deacetylase was partially purified from human T cell leukemia Jurkat cells
Put plainly: Test 1: Determination of histone deacetylase inhibitor activity. In kind it is biochemical. The note with it: partially purified human histone deacetylase from Jurkat cells; [3H] acetyl-labeled histones; 25° C., 30 minutes; read-out: Test 1: HDAC inhibitory activity IC50. The method, then: Test 1: Determination of Histone Deacetylase Inhibitor Activity
The partial purification of human histone deacetylase, the preparation of [^3H] acetyl histones, and the assay for histone deacetylase activity were performed basically according to the method as proposed by Yoshida et al. as follows.
Partial Purification of Human Histone Deacetylase
The human histone deacetylase was partially purified from human T cell leukemia Jurkat cells. Jurkat cells (5×10^8 cells) were suspended in 40 ml of the HDA buffer consisting of 15 mM potassium phosphate, pH 7.5, 5% glycerol and 0.2 mM EDTA. After homogenization, nuclei were collected by centrifugation (35,000×g, 10 min) and homogenized in 20 ml of the same buffer supplemented with 1 M (NH4)2SO4. The viscous homogenate was sonicated and clarified by centrifugation (35,000×g, 10 min), and the deacetylase was precipitated by raising the concentration of (NH4)2SO4 to 3.5 M. The precipitated protein was dissolved in 10 ml of the HDA buffer and dialyzed against 4 liters of the same buffer. The dialyzate was then loaded onto a DEAE-cellulose (Whatman DE52) column (25×85 mm) equilibrated with the same buffer and eluted with 300 ml of a linear gradient (0-0.6 M) of NaCl. A single peak of histone deacetylase activity appeared between 0.3 and 0.4 M NaCl.
Preparation of [^3H] Acetyl Histone
To obtain [^3H] acetyl-labeled histone as the substrate for the histone deacetylase assay, 1×10^8 cells of Jurkat in 20 ml of RPMI-1640 medium (supplemented with 10% FBS, penicillin (50 units/ml) and streptomycin (50 μg/ml)) were incubated with 300 MBq [^3H] sodium acetate in the presence of 5 mM sodium butyrate for 30 minutes in 5% CO2-95% air atmosphere at 37° C. in a 75 cm^2 flask, harvested into a centrifuge tube (50 ml), collected by centrifugation at 1000 rpm for 10 minutes, and washed once with phosphate-buffered saline. The washed cells were suspended in 15 ml of ice-cold lysis buffer (10 mM Tris-HCl, 50 mM sodium bisulfite, 1% Triton X-100, 10 mM MgCl2, 8.6% sucrose, pH 6.5). After Dounce homogenization (30 stroke), the nuclei were collected by centrifugation at 1000 rpm for 10 minutes, washed 3 times with 15 ml of the lysis buffer, and once with 15 ml of ice-cooled washing buffer (10 mM Tris-HCl, 13 mM EDTA, pH 7.4) successively. The pellet was suspended in 6 ml of ice-cooled water using a mixer, and 68 μl of H2SO4 was added to the suspension to give a concentration of 0.4 N. After incubation at 4° C. for 1 hour, the suspension was centrifuged for 5 minutes at 15,000 rpm, and the supernatant was taken and mixed with 60 ml of acetone. After overnight incubation at −20° C., the coagulated material was collected by microcentrifugation, air-dried, and stored at −80° C.
Assay for Histone Deacetylase Activity
For the standard assay, 10 μl of [^3H] acetyl-labeled histones were added to 90 μl of the enzyme fraction, and the mixture was incubated at 25° C. for 30 minutes. The reaction was stopped by addition of 10 μl of HCl. The released [^3H] acetic acid was extracted with 1 ml of ethyl acetate, and 0.9 ml of the solvent layer was taken into 10 ml of toluene scintillation solution for determination of radioactivity.

The subject of test [3] is MCP-1 production by activated THP-1 cells. The experiment in a line: Test 4: MCP-1 production by activated THP-1 cells (MCP-1 ELISA). In kind it is cell-based, human. The conditions noted are these: PMA 50 ng/mL 16 hours, compound 9 hr, at doses up to 1 nM, FIG. 3. The method, then:
Test 4: Effect of HDAC Inhibitor on MCP-1 Production by Activated THP-1 Cells For the measurement of MCP-1 level by ELISA, 1×10^6 THP-1 cells (JCRB0112, JCRB) were plated in 6-well tissue culture plates. The cells were cultured in RPMI1640 (SIGMA) supplemented with 10% FBS (MOREGATE) in the presence of PMA (SIGMA, 50 ng/mL) for 16 hours at 37° C., 5% CO2. After incubation, the medium was changed to RPMI1640 supplemented with 2% FBS and various concentrations of Compound E138 or FK506 were added. The cells were further cultured for 9 hr and the amount of MCP-1 protein secreted by activated THP-1 cells into the medium was determined by […] Immuno assay System human MCP-1 (Genzyme Techne) according to the manufacturer's instructions.
(In general: In an ELISA, binding on a coated surface is turned into a signal by an enzyme label.)

The test system of test [4] is TNFα induced NF-κB activation. The experiment in a line: Test 3: NF-κB reporter gene assay in TNFα-stimulated HEL cells. In kind it is cell-based. The note with it: HEL cells transfected with pNFκB-TA-Luc, TNFα (10 ng/ml); at doses up to 3 nM; FIG. 2. The method, then: Test 3: Effect of HDAC Inhibitor on TNFα Induced NF-κB Activation 8.75×10^6 HEL cells (JCRB0062, JCRB) were transfected with 10 μg of pNFκB-TA-Luc (Clontech, as shown in FIG. 1) by electroporation at 1750 V and 10 μF with Gene Pulser II (BIO-RAD). The cells were resuspended in 2 ml of RPMI1640 (SIGMA) supplemented with 10% FBS (MOREGATE) and aliquated 50 μl each well in 96-well tissue culture plates. After 5 hr culture at 37° C., 5% CO2, for cell function recovery, the cells were cultured in the presence or absence of TNFα (10 ng/ml) for 4 hr. TNFα stimulated cells were incubated with Compound E138 or FK506 (commercial available immunosuppresive agent, also referred as Tacrolimus) at appropriate concentrations for 1 hour prior to stimulation. For the NF-κB reporter gene assay, the transfected cells were lysed and assayed for luciferase activity with the Bright-glo Luciferase Assay System (Promega) according to the manufacturer's instructions.
(In general: A reporter such as luciferase makes a cellular process visible.)

The test system of test [5] is IL-2 mRNA expression in activated Jurkat cells. Put plainly: IL-2 mRNA expression in activated Jurkat cells. The format is cell-based, human. The conditions noted are these: at 1 nM.

SMILES strings stand for the structures. Square brackets hold non-standard residues; d marks the D form. Peptide text beside a SMILES is read from it. Aoda(9S-OH) = C[C@H](O)C(=O)CCCCC[C@H](N)C(=O)O; Phe(4-CN) = N#Cc1ccc(C[C@H](N)C(=O)O)cc1; Iva = CC[C@](C)(N)C(=O)O

As a reminder, the IC50 is the concentration that inhibits the measured activity by half. Take `CC[C@]1(C)NC(=O)[C@H](CCCCCC(=O)[C@@H](C)O)NC(=O)[C@H]2CCCN2C(=O)[C@H](Cc2ccc(OCc3ccccc3)cc2)NC1=O` [Compound E6]: the IC50 in test [1] is less than 0.05 µM; in test [2], less than 0.1 µM.

For the compound `CC[C@]1(C)NC(=O)[C@H](CCCCCC(=O)[C@@H](C)O)NC(=O)[C@H]2CCCN2C(=O)[C@H](Cc2ccc(O)cc2)NC1=O` [Compound E8], the IC50 in test [1] was less than 0.05 µM; in test [2], less than 0.1 µM.

`CC[C@]1(C)NC(=O)[C@H](CCCCCC(=O)[C@@H](C)O)NC(=O)[C@H]2CCCN2C(=O)[C@H](Cc2ccc(OC)cc2)NC1=O` [Compound E13]: the IC50 was less than 0.05 µM in test [1] and less than 0.1 µM in test [2].

On to `CC[C@]1(C)NC(=O)[C@H](CCCCCC(=O)[C@@H](C)O)NC(=O)[C@H]2CCCN2C(=O)[C@H](Cc2ccc(F)cc2)NC1=O` [Compound E17], for which the IC50 in test [1] is less than 0.05 µM; in test [2], less than 0.1 µM.

Turning to `CC[C@]1(C)NC(=O)[C@H](CCCCCC(=O)[C@H](C)O)NC(=O)[C@H]2CCCN2C(=O)[C@H](Cc2ccc(C#N)cc2)NC1=O` [Compound E23] (cyclo([Iva][Phe(4-CN)][dP][Aoda(9S-OH)])), the concentration for half-maximal inhibition (IC50) is less than 0.05 µM in test [1] and less than 0.1 µM in test [2].

`CCOc1ccc(C[C@@H]2NC(=O)[C@](C)(CC)NC(=O)[C@H](CCCCCC(=O)[C@@H](C)O)NC(=O)[C@H]3CCCN3C2=O)cc1` [Compound E26]: the values for the IC50 in test [1] and in test [2] were less than 0.05 µM and less than 0.1 µM, respectively.

Regarding `CC[C@]1(C)NC(=O)[C@H](CCCCCC(=O)[C@@H](C)O)NC(=O)[C@H]2CCCN2C(=O)[C@H](Cc2ccccc2F)NC1=O` [Compound E33], the values for the IC50 in test [1] and in test [2] were less than 0.05 µM and less than 0.1 µM, respectively.

Turning to `CC[C@@H](O)C(=O)CCCCC[C@@H]1NC(=O)[C@H]2CCCN2C(=O)[C@H](Cc2ccccc2F)NC(=O)[C@](C)(CC)NC1=O` [Compound E35], the 50% inhibitory concentration (IC50) in test [1] was less than 0.05 µM; in test [2], less than 0.1 µM.

As for `CC[C@]1(C)NC(=O)[C@H](CCCCCC(=O)[C@@H](C)O)NC(=O)[C@H]2CCCN2C(=O)[C@H](Cc2ccc(Cl)cc2)NC1=O` [Compound E38], the IC50 in test [1] was less than 0.05 µM; in test [2], less than 0.1 µM.

For the compound `CCC1(CC)NC(=O)[C@H](CCCCCC(=O)[C@@H](C)O)NC(=O)[C@H]2CCCN2C(=O)[C@H](Cc2ccccc2)NC1=O` [Compound E41], the IC50 in test [1] is less than 0.05 µM; in test [2], less than 0.1 µM.

As for `CC[C@@H](O)C(=O)/C=C/CCC[C@@H]1NC(=O)[C@H]2CCCN2C(=O)[C@H](Cc2ccccc2)NC(=O)[C@](C)(CC)NC1=O` [Compound E48], the IC50 was less than 0.05 µM in test [1] and less than 0.1 µM in test [2].

For the compound `C=CC[C@@H]1/C=C(\C)C[C@H](C)C[C@H](OC)[C@H]2O[C@@](O)(C(=O)C(=O)N3CCCC[C@H]3C(=O)O[C@H](/C(C)=C/[C@@H]3CC[C@@H](O)[C@H](OC)C3)[C@H](C)[C@@H](O)CC1=O)[C@H](C)C[C@@H]2OC` [FK506, Tacrolimus], the “effect on MCP-1 production by activated THP-1 cells” value in test [3] is “no direct effect”. Further, in test [4], the “effect on TNFα induced NF-κB activation” value is on record as “no direct effect”. Moreover, in test [5], the “inhibition of IL-2 mRNA expression” value was “almost completely inhibits”.
